Measured values taken from PMC5107945, “Abscinazole-E3M, a practical inhibitor of abscisic acid 8′-hydroxylase for improving drought tolerance” (Scientific Reports, 2016).

What was measured:
[1] = molecular target: T1, Arabidopsis recombinant CYP707A3 (ABA 8′-hydroxylase) (Arabidopsis thaliana, UniProt Q9FH76); assay: CYP707A3 inhibition assay (decrease of enzymatic product PA); type: biochemical; settings: Arabidopsis recombinant CYP707A3 expressed in E. coli
T1 construct: made in house; host or cells: Escherichia coli (microsomal/membrane fraction)
T1 sequence (Q9FH76 1-463): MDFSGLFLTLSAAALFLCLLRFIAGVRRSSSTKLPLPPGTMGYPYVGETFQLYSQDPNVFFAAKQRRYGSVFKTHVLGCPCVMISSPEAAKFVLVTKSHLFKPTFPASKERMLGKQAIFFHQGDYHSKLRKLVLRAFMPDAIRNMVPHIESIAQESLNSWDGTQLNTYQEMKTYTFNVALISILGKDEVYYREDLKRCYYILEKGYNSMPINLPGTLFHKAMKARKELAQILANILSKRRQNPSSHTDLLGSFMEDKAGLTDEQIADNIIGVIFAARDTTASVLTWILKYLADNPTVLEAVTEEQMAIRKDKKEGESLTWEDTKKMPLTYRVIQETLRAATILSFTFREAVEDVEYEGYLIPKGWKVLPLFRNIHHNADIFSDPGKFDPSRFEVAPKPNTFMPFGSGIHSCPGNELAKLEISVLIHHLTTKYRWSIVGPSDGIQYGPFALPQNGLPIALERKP
Description: The inhibitory activities of Abz-T compounds against ABA 8′-hydroxylase were examined using recombinant Arabidopsis CYP707A3 co-expressed with Arabidopsis P-450 reductase (ATR1) in Escherichia coli[22]. The activity levels were evaluated based on the decrease in the amount of the enzymatic product, PA.
Reactions were initiated by adding NADPH, stopped by the addition of 25 μL of 1 M NaOH and then acidified with 50 μL of 1 M HCl. Reaction products were extracted by loading the mixture onto an Oasis HLB cartridge (1 mL, 30 mg; Waters Corp., Milford, MA, USA) and were washed with 1 mL of 10% MeOH in H2O (v/v) containing 1% acetic acid (AcOH, v/v). The enzyme products were then eluted with 1 mL of MeOH containing 1% AcOH, and the eluate was concentrated in vacuo. Each dried sample was then dissolved in 50 μL of MeOH, and a 20-μL volume was subjected to HPLC (Prominence; Shimadzu Corp., Kyoto, Japan). HPLC conditions were as follows: the octadecylsilyl column was composed of Hydrosphere C18 (150 × 6.0 mm, YMC Co., Ltd., Kyoto, Japan), and the solvent comprised 17% acetonitrile (MeCN) in H2O containing 0.05% AcOH (v/v). The flow rate was 1.0 mL min^−1, and detection was at 254 nm. Enzyme activity was evaluated by determining the amount of PA in control experiments prior to taking each set of measurements. The inhibition constants were determined using the Enzyme Kinetics module of the SigmaPlot 10 software (Systat Software, Inc., San Jose, CA, USA) after determining the inhibition mode by plotting the reaction velocity in the presence and absence of the inhibitor on a double-reciprocal plot. The inhibition ratio was defined as [(A − B)/A] × 100, where A = the amount of PA when the inhibitor was absent from the reaction mixture (control), and B = the amount of PA when the inhibitor was present. All of the tests were conducted at least three times.

rice seedling growth = assay: Rice seedling elongation assay; type: in vivo, Oryza sativa L. cv. Nipponbare; settings: Fig. S5
Description: The effects of (−)-Abz-T compounds were also tested on the early growth of rice seedlings to investigate whether the plant growth-retardant effect derived from UNI declined. […] This was the same trend observed for (−)-Abz-E2B[26]. […] Thus, the growth-retardant effects of (−)-Abz-T compounds may arise from an increase in the endogenous ABA level due to the CYP707A inhibition, although we cannot exclude the possibility that Abz-T compounds may inhibit off-target enzymes other than CYP707A and CYP701A.
Figure 4 Effects of (−)-Abz-T compounds on rice seedling growth compared with the effects of UNI and (−)-Abz-E2B. Seedlings grown on test media containing indicated concentrations of azole inhibitors for 7 d. Scale bars represent 10 mm. Compound 6 is also referred to as Abz-E3M.
For the rice seedling elongation assay, seven seeds (Oryza sativa L. cv. Nipponbare) were sterilised with reagent-grade EtOH for 5 min and washed with running tap water. They were then soaked in distilled water and incubated under continuous illumination at 25 °C for 3 d to germinate. The germinated seeds were then soaked in 2 mL of a test medium in a glass tube and grown under continuous illumination at 25 °C. When the seedlings were 7 d old, the length of the second leaf sheath was measured. All of the assays were conducted at least three times.

endogenous ABA level = assay: Endogenous ABA levels in maize; type: in vivo, Maize (cv. Gold rush); settings: maize 2-week-old seedlings, roots dipped in 100 μM overnight, aerial shoot tissues
ABA catabolism = settings: in vivo
Description: For ABA measurements from Arabidopsis seedlings, samples (1–20 mg dry weight) were ground with beads in 2-mL tubes and homogenised in 1 mL 80% (v/v) MeCN containing 1% AcOH (v/v) with d6-ABA. After extracting for 16 h at 4 °C, samples were centrifuged at 4 °C for 10 min at 3,000× g, and supernatants were collected. Samples were re-extracted twice with 1 mL 80% MeCN at 4 °C for 30 min, and the supernatants were collected after centrifugation. MeCN was removed with nitrogen gas, and the acidified water extracts were loaded into 1cc Oasis HLB cartridges. After washing with water containing 1% AcOH, plant ABA was eluted with 80% MeCN containing 1% AcOH. MeCN was removed, and samples were loaded into 1cc Bond Elute DEA cartridges (Agilent). After washing with MeOH, the ABA was eluted using MeOH containing 1% AcOH. The fractions containing ABA were dried, dissolved in water containing 1% AcOH, and analysed by LC–MS/MS as described previously[35]. The LC conditions for Arabidopsis samples were as follows: solvent A, water containing 0.01% (v/v) acetic acid; solvent B, MeCN containing 0.05% (v/v) acetic acid; and linear gradient, 3 to 40% solvent B over 9 min. Experiments were performed in triplicate, and the results were averaged.
25 µ M (−)-Abz-E3M (n = 3,error bar represents s.d.).Eleven-day-old seedlings of wild-type (Col accession) […]

Substance: abscinazole-E3M [(−)-6]
- IC50 ([1]; 5 μM ABA as substrate, read-out: CYP707A IC50): 64 nM
- Ki ([1]; ABA 1–64 μM, read-out: CYP707A KI): 35 nM
- Effect on rice seedling growth, co-treatment with ABA (rice seedling growth; 10 μM compound + 1 μM ABA): inhibited rice seedling growth
- Effect on rice seedling growth, compound alone (rice seedling growth; 10 μM, no ABA): did not
- Endogenous ABA levels (endogenous ABA level): increased the endogenous ABA levels
- ABA catabolism / ABA accumulation in plants (ABA catabolism): inhibited ABA catabolism and increased ABA accumulation in plants
